Counter-ions that a name gives are not always drawn.
Columns and labels:
[1] = molecular target: GST-tagged truncated LRRK2 (Homo sapiens (Human), UniProt Q5S007); test: LRRK2 Lantha Screen kinase assay; format: biochemical; details: geometric mean of 2-5 determinations unless otherwise indicated (a: >=6 determinations; b: single determination); read-out: LRRK2 WT IC50
mutant G2019S LRRK2 = mutant G2019S LRRK2 (Homo sapiens (Human), UniProt Q5S007, G2019S); test: LRRK2 Lantha Screen kinase assay, mutant enzyme; format: biochemical; details: geometric mean of 2-5 determinations unless otherwise indicated (a: >=6 determinations; b: single determination)
mutant G2019S LRRK2, sequence (Q5S007 970-2527 G2019S): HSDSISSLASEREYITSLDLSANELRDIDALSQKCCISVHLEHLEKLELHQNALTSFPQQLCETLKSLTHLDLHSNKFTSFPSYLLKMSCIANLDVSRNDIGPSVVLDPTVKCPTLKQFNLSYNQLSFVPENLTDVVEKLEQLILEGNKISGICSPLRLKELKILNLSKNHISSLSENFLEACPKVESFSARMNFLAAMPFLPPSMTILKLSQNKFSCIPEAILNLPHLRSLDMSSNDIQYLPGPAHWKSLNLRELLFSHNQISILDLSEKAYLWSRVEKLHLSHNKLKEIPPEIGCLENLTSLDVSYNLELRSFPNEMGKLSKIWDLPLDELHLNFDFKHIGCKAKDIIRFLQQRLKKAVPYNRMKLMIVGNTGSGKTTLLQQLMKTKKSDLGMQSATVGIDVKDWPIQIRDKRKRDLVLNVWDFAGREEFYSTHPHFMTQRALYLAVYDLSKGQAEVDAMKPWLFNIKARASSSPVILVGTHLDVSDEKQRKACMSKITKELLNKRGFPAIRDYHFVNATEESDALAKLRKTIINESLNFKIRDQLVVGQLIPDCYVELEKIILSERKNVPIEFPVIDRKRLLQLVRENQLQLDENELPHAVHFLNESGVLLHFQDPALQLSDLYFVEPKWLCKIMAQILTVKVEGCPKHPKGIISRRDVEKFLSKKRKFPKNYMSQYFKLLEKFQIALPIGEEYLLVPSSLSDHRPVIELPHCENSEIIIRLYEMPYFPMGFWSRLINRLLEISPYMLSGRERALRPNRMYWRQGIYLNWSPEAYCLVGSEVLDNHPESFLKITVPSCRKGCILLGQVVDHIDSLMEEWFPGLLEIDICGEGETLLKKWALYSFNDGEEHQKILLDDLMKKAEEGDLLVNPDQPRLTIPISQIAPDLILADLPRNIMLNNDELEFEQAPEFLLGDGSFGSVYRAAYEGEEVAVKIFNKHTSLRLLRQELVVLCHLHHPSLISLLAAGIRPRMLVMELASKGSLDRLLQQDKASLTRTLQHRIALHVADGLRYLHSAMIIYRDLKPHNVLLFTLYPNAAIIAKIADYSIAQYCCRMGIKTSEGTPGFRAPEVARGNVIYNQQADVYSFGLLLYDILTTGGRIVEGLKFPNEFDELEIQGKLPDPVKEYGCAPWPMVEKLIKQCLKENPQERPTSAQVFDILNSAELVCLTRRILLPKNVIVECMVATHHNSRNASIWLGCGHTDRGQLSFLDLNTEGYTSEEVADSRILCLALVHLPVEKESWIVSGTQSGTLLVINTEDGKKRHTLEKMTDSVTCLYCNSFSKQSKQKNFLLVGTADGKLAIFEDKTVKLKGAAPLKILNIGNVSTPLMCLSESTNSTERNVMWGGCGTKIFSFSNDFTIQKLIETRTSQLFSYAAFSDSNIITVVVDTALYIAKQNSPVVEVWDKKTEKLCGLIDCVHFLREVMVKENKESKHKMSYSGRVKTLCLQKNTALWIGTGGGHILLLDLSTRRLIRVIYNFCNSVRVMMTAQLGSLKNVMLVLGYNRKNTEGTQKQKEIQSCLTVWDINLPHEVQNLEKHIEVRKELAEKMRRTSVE

GST-tagged truncated LRRK2, sequence (Q5S007 970-2527): as the sequence (Q5S007 970-2527 G2019S) above, with S1050G counted along it

Work on `COc1ccc(F)cc1-c1c[nH]c2ncnc(N3CCC3)c12` [Example 168, 4-(azetidin-1-yl)-5-(5-fluoro-2-methoxyphenyl)-7H-pyrrolo[2,3-d]pyrimidine] yielded an IC50 [1] of 85 nM and an IC50 (mutant G2019S LRRK2) of 75 nM.

In the case of `c1nc(N2CCOCC2)c2c(-c3cn[nH]c3)c[nH]c2n1` [Example 8, 4-(Morpholin-4-yl)-5-(1H-pyrazol-4-yl)-7H-pyrrolo[2,3-d]pyrimidine, formate salt], the IC50 [1] is reported as 25 nM and the IC50 (mutant G2019S LRRK2) is reported as 33 nM.

For `N#Cc1ccc(-c2c[nH]c3ncnc(N4CCOCC4)c23)s1` [Example 211, 5-[4-(morpholin-4-yl)-7H-pyrrolo[2,3-d]pyrimidin-5-yl]thiophene-2-carbonitrile], the IC50 [1] was 21.9 nM and the IC50 (mutant G2019S LRRK2) was 118 nM.

In the case of `O=c1cc(-c2c[nH]c3ncnc(N4CCOCC4)c23)cc[nH]1` [Example 204, 4-[4-(morpholin-4-yl)-7H-pyrrolo[2,3-d]pyrimidin-5-yl]pyridin-2(1H)-one], the IC50 [1] is reported as 11.7 nM and the IC50 (mutant G2019S LRRK2) is reported as 32.7 nM.

`Fc1ccc(F)c(-c2c[nH]c3ncnc(N4CCOCC4)c23)c1` [Example 86, 5-(2,5-difluorophenyl)-4-(morpholin-4-yl)-7H-pyrrolo[2,3-d]pyrimidine] was tested, and the IC50 [1] was 76 nM and the IC50 (mutant G2019S LRRK2) was 145 nM.

In the case of `C[C@H]1CCCN(c2ncnc3[nH]cc(-c4cnn(C)c4)c23)C1` [Example 17, 4-[(3S)-3-methylpiperidin-1-yl]-5-(1-methyl-1H-pyrazol-4-yl)-7H-pyrrolo[2,3-d]pyrimidine], the IC50 [1] is reported as 14 nM and the IC50 (mutant G2019S LRRK2) is reported as 12 nM.

For `N#Cc1cccc(-c2c[nH]c3ncnc(N4CCCC(C(N)=O)C4)c23)c1` (stereo not drawn) [Example 139, 1-[5-(3-cyanophenyl)-7H-pyrrolo[2,3-d]pyrimidin-4-yl]piperidine-3-carboxamide], the IC50 [1] was 49 nM and the IC50 (mutant G2019S LRRK2) was 136 nM.

`C[C@H]1CCCN(c2ncnc3[nH]cc(-c4cccc(C#N)c4)c23)C1` [Example 16, 3-{4-[(3S)-3-methylpiperidin-1-yl]-7H-pyrrolo[2,3-d]pyrimidin-5-yl}benzonitrile] gave an IC50 [1] of 16 nM and an IC50 (mutant G2019S LRRK2) of 45 nM.

In the case of `N#Cc1cccc(-c2c[nH]c3ncnc(N4CCCC4)c23)c1` [Example 70, 3-[4-(pyrrolidin-1-yl)-7H-pyrrolo[2,3-d]pyrimidin-5-yl]benzonitrile], the IC50 [1] is reported as 8 nM and the IC50 (mutant G2019S LRRK2) is reported as 64 nM.

`COc1ccccc1-c1c[nH]c2ncnc(N3CCCC3)c12` [Example 176, 5-(2-methoxyphenyl)-4-(pyrrolidin-1-yl)-7H-pyrrolo[2,3-d]pyrimidine] gave an IC50 [1] of 54 nM and an IC50 (mutant G2019S LRRK2) of 68 nM.

In the case of `N#Cc1cccc(-c2c[nH]c3ncnc(N4CCCC(O)C4)c23)c1` (stereo not drawn) [Example 138, 3-[4-(3-hydroxypiperidin-1-yl)-7H-pyrrolo[2,3-d]pyrimidin-5-yl]benzonitrile], the IC50 [1] is reported as 10 nM and the IC50 (mutant G2019S LRRK2) is reported as 27 nM.

With `c1cnn2c(-c3c[nH]c4ncnc(N5CCOCC5)c34)cnc2c1` [Example 212, 5-(imidazo[1,2-b]pyridazin-3-yl)-4-(morpholin-4-yl)-7H-pyrrolo[2,3-d]pyrimidine] the IC50 [1] was 6.26 nM and the IC50 (mutant G2019S LRRK2) was 12.3 nM.

`N#Cc1cccc(-c2c[nH]c3ncnc(N4CCCC(F)(F)C4)c23)c1` [Example 128, 3-[4-(3,3-difluoropiperidin-1-yl)-7H-pyrrolo[2,3-d]pyrimidin-5-yl]benzonitrile] gave an IC50 [1] of 79 nM and an IC50 (mutant G2019S LRRK2) of 169 nM.

Work on `c1ccc(-c2c[nH]c3ncnc(N4CCCC4)c23)cc1` [Example 18, 5-phenyl-4-(pyrrolidin-1-yl)-7H-pyrrolo[2,3-d]pyrimidine] yielded an IC50 [1] of 71 nM and an IC50 (mutant G2019S LRRK2) of 47 nM.

Work on `N#Cc1cccc(-c2c[nH]c3ncnc(N4CCC(O)CC4)c23)c1` [Example 109, 3-[4-(4-hydroxypiperidin-1-yl)-7H-pyrrolo[2,3-d]pyrimidin-5-yl]benzonitrile] yielded an IC50 [1] of 52 nM and an IC50 (mutant G2019S LRRK2) of 109 nM.

Molecule `CN(C)c1ncnc2[nH]cc(-c3cc(F)cc(C#N)c3)c12` [Example 75, 3-[4-(dimethylamino)-7H-pyrrolo[2,3-d]pyrimidin-5-yl]-5-fluorobenzonitrile] has an IC50 [1] of 53 nM and an IC50 (mutant G2019S LRRK2) of 396 nM.

`C[C@H]1CCCN(c2ncnc3[nH]cc(-c4cccc(C#N)c4F)c23)C1` [Example 67, 2-fluoro-3-{4-[(3S)-3-methylpiperidin-1-yl]-7H-pyrrolo[2,3-d]pyrimidin-5-yl}benzonitrile] was tested, and the IC50 [1] was 11 nM and the IC50 (mutant G2019S LRRK2) was 35 nM.

Molecule `C[C@H]1CCCN(c2ncnc3[nH]cc(-c4cccnc4)c23)C1` [Example 51, 4-[(3S)-3-methylpiperidin-1-yl]-5-(pyridin-3-yl)-7H-pyrrolo[2,3-d]pyrimidine] has an IC50 [1] of 56 nM and an IC50 (mutant G2019S LRRK2) of 95 nM.

`COc1cc(C#N)cc(-c2c[nH]c3ncnc(N4CCOCC4)c23)c1` [Example 118, 3-methoxy-5-[4-(morpholin-4-yl)-7H-pyrrolo[2,3-d]pyrimidin-5-yl]benzonitrile] showed an IC50 [1] of 77 nM and an IC50 (mutant G2019S LRRK2) of 177 nM.

In the case of `COc1ccccc1-c1c[nH]c2ncnc(N3CCC(F)CC3)c12` [Example 159, 4-(4-fluoropiperidin-1-yl)-5-(2-methoxyphenyl)-7H-pyrrolo[2,3-d]pyrimidine], the IC50 [1] is reported as 67 nM and the IC50 (mutant G2019S LRRK2) is reported as 74 nM.

`C[C@H]1CN(c2ncnc3[nH]cc(-c4cccc(C#N)c4F)c23)CCO1` [Example 180, 2-fluoro-3-{4-[(2S)-2-methylmorpholin-4-yl]-7H-pyrrolo[2,3-d]pyrimidin-5-yl}benzonitrile] gave an IC50 [1] of 10 nM and an IC50 (mutant G2019S LRRK2) of 62 nM.

Molecule `Cc1nnc(C2CCCN(c3ncnc4[nH]cc(-c5cccc(C#N)c5)c34)C2)o1` (stereo not drawn) [Example 146, 3-{4-[3-(5-methyl-1,3,4-oxadiazol-2-yl)piperidin-1-yl]-7H-pyrrolo[2,3-d]pyrimidin-5-yl}benzonitrile] has an IC50 [1] of 96 nM and an IC50 (mutant G2019S LRRK2) of 217 nM.

Work on `COc1ccc(F)cc1-c1c[nH]c2ncnc(N3CCO[C@@H](C)C3)c12` [Example 179, 5-(5-fluoro-2-methoxyphenyl)-4-[(2S)-2-methylmorpholin-4-yl]-7H-pyrrolo[2,3-d]pyrimidine] yielded an IC50 [1] of 19 nM and an IC50 (mutant G2019S LRRK2) of 30 nM.

For `COc1ccc(F)cc1-c1c[nH]c2ncnc(N(C)C)c12` [Example 183, 5-(5-fluoro-2-methoxyphenyl)-N,N-dimethyl-7H-pyrrolo[2,3-d]pyrimidin-4-amine], the IC50 [1] was 13 nM and the IC50 (mutant G2019S LRRK2) was 11 nM.

With `C[C@H]1CN(c2ncnc3[nH]cc(-c4cccc(F)c4)c23)CCO1` [Example 182, 5-(3-fluorophenyl)-4-[(2S)-2-methylmorpholin-4-yl]-7H-pyrrolo[2,3-d]pyrimidine] the IC50 [1] was 38 nM and the IC50 (mutant G2019S LRRK2) was 82 nM.

`Cc1noc(C2CN(c3ncnc4[nH]cc(-c5cccc(C#N)c5F)c34)CCO2)n1` (stereo not drawn) [Example 166, 2-fluoro-3-{4-[2-(3-methyl-1,2,4-oxadiazol-5-yl)morpholin-4-yl]-7H-pyrrolo[2,3-d]pyrimidin-5-yl}benzonitrile] showed an IC50 [1] of 38 nM and an IC50 (mutant G2019S LRRK2) of 272 nM.

Work on `N#Cc1cccc(-c2c[nH]c3ncnc(Nc4cn[nH]c4)c23)c1` [Example 144, 3-[4-(1H-pyrazol-4-ylamino)-7H-pyrrolo[2,3-d]pyrimidin-5-yl]benzonitrile] yielded an IC50 [1] of 69 nM and an IC50 (mutant G2019S LRRK2) of 36 nM.

Molecule `COc1ccc(C#N)cc1-c1c[nH]c2ncnc(N3CCOCC3)c12` [Example 115, 4-methoxy-3-[4-(morpholin-4-yl)-7H-pyrrolo[2,3-d]pyrimidin-5-yl]benzonitrile] has an IC50 [1] of 48 nM and an IC50 (mutant G2019S LRRK2) of 121 nM.

`Cc1ccnc(-c2c[nH]c3ncnc(N4CCOCC4)c23)c1` [Example 188, 5-(4-methylpyridin-2-yl)-4-(morpholin-4-yl)-7H-pyrrolo[2,3-d]pyrimidine] gave an IC50 [1] of 43 nM and an IC50 (mutant G2019S LRRK2) of 90 nM.

For `C[C@H]1CCCN(c2ncnc3[nH]cc(-c4ccc(O)cc4)c23)C1` [Example 56, 4-{4-[(3S)-3-methylpiperidin-1-yl]-7H-pyrrolo[2,3-d]pyrimidin-5-yl}phenol], the IC50 [1] was 26 nM and the IC50 (mutant G2019S LRRK2) was 28 nM.

Work on `N#Cc1cccc(-c2c[nH]c3ncnc(N4CCC(F)CC4)c23)c1` [Example 33, 3-[4-(4-fluoropiperidin-1-yl)-7H-pyrrolo[2,3-d]pyrimidin-5-yl]benzonitrile] yielded an IC50 [1] of 17 nM and an IC50 (mutant G2019S LRRK2) of 96 nM.

For `CCN(CC)c1ncnc2[nH]cc(-c3cccc(C#N)c3)c12` [Example 73, 3-[4-(diethylamino)-7H-pyrrolo[2,3-d]pyrimidin-5-yl]benzonitrile], the IC50 [1] was 13 nM and the IC50 (mutant G2019S LRRK2) was 119 nM.

In the case of `CC1CCN(c2ncnc3[nH]cc(-c4cccc(C#N)c4)c23)CC1` [Example 62, 3-[4-(4-methylpiperidin-1-yl)-7H-pyrrolo[2,3-d]pyrimidin-5-yl]benzonitrile], the IC50 [1] is reported as 91 nM and the IC50 (mutant G2019S LRRK2) is reported as 273 nM.

In the case of `N#Cc1cccc(-c2c[nH]c3ncnc(N4CCC(F)CC4)c23)c1F` [Example 158, 2-fluoro-3-[4-(4-fluoropiperidin-1-yl)-7H-pyrrolo[2,3-d]pyrimidin-5-yl]benzonitrile], the IC50 [1] is reported as 18 nM and the IC50 (mutant G2019S LRRK2) is reported as 86 nM.

`CSc1cccc(-c2c[nH]c3ncnc(N4CCOCC4)c23)c1` [Example 102, 5-[3-(methylsulfanyl)phenyl]-4-(morpholin-4-yl)-7H-pyrrolo[2,3-d]pyrimidine] gave an IC50 [1] of 52 nM and an IC50 (mutant G2019S LRRK2) of 78 nM.

With `Cc1c(C#N)cccc1-c1c[nH]c2ncnc(N3CCOCC3)c12` [Example 203, 2-methyl-3-[4-(morpholin-4-yl)-7H-pyrrolo[2,3-d]pyrimidin-5-yl]benzonitrile] the IC50 [1] was 13.2 nM and the IC50 (mutant G2019S LRRK2) was 90.1 nM.

Work on `c1cncc(-c2c[nH]c3ncnc(N4CCOCC4)c23)c1` [Example 103, 4-(morpholin-4-yl)-5-(pyridin-3-yl)-7H-pyrrolo[2,3-d]pyrimidine] yielded an IC50 [1] of 35 nM and an IC50 (mutant G2019S LRRK2) of 159 nM.

`Fc1ccc(Cl)cc1-c1c[nH]c2ncnc(N3CCOCC3)c12` [Example 88, 5-(5-chloro-2-fluorophenyl)-4-(morpholin-4-yl)-7H-pyrrolo[2,3-d]pyrimidine] was tested, and the IC50 [1] was 9 nM and the IC50 (mutant G2019S LRRK2) was 12 nM.

For `N#Cc1cccc(-c2c[nH]c3ncnc(N4CCC(F)(F)CC4)c23)c1` [Example 32, 3-[4-(4,4-difluoropiperidin-1-yl)-7H-pyrrolo[2,3-d]pyrimidin-5-yl]benzonitrile], the IC50 [1] was 67 nM and the IC50 (mutant G2019S LRRK2) was 333 nM.

From US9156845B2, “4-(substituted amino)-7H-pyrrolo[2,3-d] pyrimidines as LRRK2 inhibitors” (Pfizer Inc., priority 2012, dated 2015)
